Experimental data from ChEMBL document CHEMBL1287771, “Novel hybrids of 15-membered 8a- and 9a-azahomoerythromycin A ketolides and quinolones as potent antibacterials” (2010).
Converted amounts (≈) assume the structure as drawn.

What was measured:
Type in all cases: functional
Streptococcus pyogenes [1] = experiment: Antibacterial activity against constitutive macrolide-lincosamide-streptogramin B-resistant Streptococcus pyogenes B0544 by agar microdilution method
Streptococcus pneumoniae [2] = experiment: Antibacterial activity against efflux-resistant Streptococcus pneumoniae B0326 by agar microdilution method
Streptococcus pneumoniae [3] = experiment: Antibacterial activity against constitutive macrolide-lincosamide-streptogramin B-resistant Streptococcus pneumoniae B0627 by agar microdilution method
Streptococcus pneumoniae [4] = experiment: Antibacterial activity against erythromycin A-susceptible Streptococcus pneumoniae B0541 by agar microdilution method
Haemophilus influenzae = experiment: Antibacterial activity against Haemophilus influenzae B0529 by agar microdilution method
Staphylococcus aureus [5] = experiment: Antibacterial activity against erythromycin A-susceptible Staphylococcus aureus B0329 by agar microdilution method
Streptococcus pyogenes [6] = experiment: Antibacterial activity against inducible macrolide-lincosamide-streptogramin B-resistant Streptococcus pyogenes B0543 by agar microdilution method
Staphylococcus aureus [7] = experiment: Antibacterial activity against constitutive macrolide-lincosamide-streptogramin B-resistant Staphylococcus aureus B0330 by agar microdilution method
Moraxella catarrhalis = experiment: Antibacterial activity against Moraxella catarrhalis B0324 by agar microdilution method
Staphylococcus aureus [8] = experiment: Antibacterial activity against efflux-resistant Staphylococcus aureus B0331 by agar microdilution method
Streptococcus pyogenes [9] = experiment: Antibacterial activity against efflux-resistant Streptococcus pyogenes B0545 by agar microdilution method
Staphylococcus aureus [10] = experiment: Antibacterial activity against inducible macrolide-lincosamide-streptogramin B-resistant Staphylococcus aureus B0538 by agar microdilution method
Streptococcus pyogenes [11] = experiment: Antibacterial activity against erythromycin A-susceptible Streptococcus pyogenes B0542 by agar microdilution method

CC[C@H]1OC(=O)[C@H](C)C(=O)[C@H](C)[C@@H](O[C@@H]2O[C@H](C)C[C@H](N(C)C)[C@H]2O)[C@](C)(OC/C=C/c2cnc3ccccc3c2)C[C@@H](C)NC(=O)[C@H](C)[C@@H]2OC(=O)O[C@]12C
MIC (Streptococcus pyogenes [1]): 8 µg/mL (≈ 10.2 µM)
MIC (Streptococcus pneumoniae [2]): ≤ 0.125 µg/mL
MIC (Streptococcus pneumoniae [3]): 4 µg/mL (≈ 5.12 µM)
MIC (Streptococcus pneumoniae [4]): 0.06 µg/mL (≈ 0.0767 µM)
MIC (Haemophilus influenzae): 1 µg/mL (≈ 1.28 µM)
MIC (Staphylococcus aureus [5]): ≤ 0.125 µg/mL
MIC (Streptococcus pyogenes [6]): ≤ 0.125 µg/mL
MIC (Staphylococcus aureus [7]): 64 µg/mL (≈ 81.8 µM)
MIC (Moraxella catarrhalis): 0.25 µg/mL (≈ 0.32 µM)
MIC (Staphylococcus aureus [8]): 0.25 µg/mL (≈ 0.32 µM)
MIC (Streptococcus pyogenes [9]): 0.5 µg/mL (≈ 0.639 µM)
MIC (Staphylococcus aureus [10]): 0.25 µg/mL (≈ 0.32 µM)
MIC (Streptococcus pyogenes [11]): ≤ 0.125 µg/mL

CC[C@H]1OC(=O)[C@H](C)C(=O)[C@H](C)[C@@H](O[C@H]2C[C@H](O)[C@@H](N(C)C)[C@@H](C)O2)[C@](C)(OC/C=C/c2cnc3ccccc3c2)C[C@@H](C)/C(=N\OC(C)=O)[C@H](C)[C@@H](O)[C@]1(C)O
MIC (Streptococcus pyogenes [1]): 32 µg/mL (≈ 40.1 µM)
MIC (Streptococcus pneumoniae [2]): ≤ 0.125 µg/mL
MIC (Streptococcus pneumoniae [3]): 8 µg/mL (≈ 10 µM)
MIC (Streptococcus pneumoniae [4]): ≤ 0.125 µg/mL
MIC (Haemophilus influenzae): 32 µg/mL (≈ 40.1 µM)
MIC (Staphylococcus aureus [5]): 0.25 µg/mL (≈ 0.313 µM)
MIC (Streptococcus pyogenes [6]): ≤ 0.125 µg/mL
MIC (Staphylococcus aureus [7]): 64 µg/mL (≈ 80.2 µM)
MIC (Moraxella catarrhalis): 8 µg/mL (≈ 10 µM)
MIC (Staphylococcus aureus [8]): 1 µg/mL (≈ 1.25 µM)
MIC (Streptococcus pyogenes [9]): 0.5 µg/mL (≈ 0.627 µM)
MIC (Staphylococcus aureus [10]): 0.5 µg/mL (≈ 0.627 µM)
MIC (Streptococcus pyogenes [11]): 0.125 µg/mL (≈ 0.157 µM)

C=CCO[C@]1(C)C[C@@H](C)C(=O)N[C@H](C)[C@H](O)[C@@](C)(O)[C@@H](CC)OC(=O)[C@H](C)C(=O)[C@H](C)[C@H]1O[C@@H]1O[C@H](C)C[C@H](N(C)C)[C@H]1O [3-O-DESCLADINOSYL-3-OXO-6-O-ALLYL-9A-AZA-9A-HOMOERYTHROMYCIN A]
MIC (Streptococcus pyogenes [1]): > 64 µg/mL
MIC (Streptococcus pneumoniae [2]): > 64 µg/mL
MIC (Streptococcus pneumoniae [3]): > 64 µg/mL
MIC (Streptococcus pneumoniae [4]): > 64 µg/mL
MIC (Haemophilus influenzae): > 64 µg/mL
MIC (Staphylococcus aureus [5]): > 64 µg/mL
MIC (Streptococcus pyogenes [6]): > 64 µg/mL
MIC (Staphylococcus aureus [7]): > 64 µg/mL
MIC (Moraxella catarrhalis): 16 µg/mL (≈ 25.4 µM)
MIC (Staphylococcus aureus [8]): > 64 µg/mL
MIC (Streptococcus pyogenes [9]): > 64 µg/mL
MIC (Staphylococcus aureus [10]): > 64 µg/mL
MIC (Streptococcus pyogenes [11]): > 64 µg/mL
